Experiments:
Experiment in all cases: relative viability (nuclei count vs DMSO), 5 days (fraction); higher = more cells survive
Obatoclax + Olaparib = compound: COC1=CC(c2cc3ccccc3[nH]2)=N/C1=C\c1[nH]c(C)cc1C [Obatoclax] + O=C(c1cc(Cc2n[nH]c(=O)c3ccccc23)ccc1F)N1CCN(C(=O)C2CC2)CC1 [Olaparib] (partner 8 µM)
In short: (§1)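 For relative viability, nuclei counts in treated wells were divided by those in vehicle wells. Lung cancer cell lines had been pin-tool dosed in 1536-well plates the day after seeding and cultured for 5 days, then fixed and stained in one step (final 0.05% Triton X-100, 1% formaldehyde, 1 ug/ml Hoechst) and imaged at 4×. Doses were one drug alone or a fixed anchor-drug dose plus five library-drug doses (not always all listed) in √10 steps, and values are duplicate-plate medians.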

[1] = compound: CC1=CC(=NN1)NC2=CC(=NC(=N2)/C=C/C3=CC=CC=C3)N4CCN(CC4)C + COc1cc2c(Oc3ccc(NC(=O)C4(C(=O)Nc5ccc(F)cc5)CC4)cc3F)ccnc2cc1OCCCN1CCOCC1 [Foretinib] (partner 0.25 µM)
In short: as §1

Obatoclax + Decitabine = compound: COC1=CC(c2cc3ccccc3[nH]2)=N/C1=C\c1[nH]c(C)cc1C [Obatoclax] + Nc1ncn([C@H]2C[C@H](O)[C@@H](CO)O2)c(=O)n1 [Decitabine] (partner 2 µM)
In short: as §1

[2] = compound: CC1=CC(=NN1)NC2=CC(=NC(=N2)/C=C/C3=CC=CC=C3)N4CCN(CC4)C + CC1(C)CCC(c2ccc(Cl)cc2)=C(CN2CCN(c3ccc(C(=O)NS(=O)(=O)c4ccc(N[C@H](CCN5CCOCC5)CSc5ccccc5)c(S(=O)(=O)C(F)(F)F)c4)cc3)CC2)C1 [Navitoclax] (partner 0.5 µM)
In short: as §1

Cell Line | relative viability (Obatoclax + Olaparib; first compound 0.01 µM) | relative viability (Obatoclax + Olaparib; first compound 0.03162 µM) | relative viability (Obatoclax + Olaparib; first compound 0.1 µM) | relative viability (Obatoclax + Olaparib; first compound 0.3162 µM) | relative viability (Obatoclax + Olaparib; first compound 1 µM) | relative viability ([1]; first compound 0.08 µM) | relative viability ([1]; first compound 0.253 µM) | relative viability ([1]; first compound 0.8 µM) | relative viability ([1]; first compound 2.53 µM) | relative viability ([1]; first compound 8 µM) | relative viability (Obatoclax + Decitabine; first compound 0.01 µM) | relative viability (Obatoclax + Decitabine; first compound 0.03162 µM) | relative viability (Obatoclax + Decitabine; first compound 0.1 µM) | relative viability (Obatoclax + Decitabine; first compound 0.3162 µM) | relative viability (Obatoclax + Decitabine; first compound 1 µM) | relative viability ([2]; first compound 0.08 µM) | relative viability ([2]; first compound 0.253 µM) | relative viability ([2]; first compound 0.8 µM) | relative viability ([2]; first compound 2.53 µM) | relative viability ([2]; first compound 8 µM)
NCI-H2342 | 0.419 | 0.409 | 0.448 | 0.515 | 0.473 | 0.918 | 1.06 | 1.14 | 1.01 | 0.578 | 0.724 | 0.782 | 0.758 | 0.732 | 0.812 | – | – | – | – | –
HCC-827 | 0.594 | 0.542 | 0.628 | 0.581 | 0.221 | 1.08 | 1.02 | 0.993 | 0.581 | 0.239 | 0.332 | 0.273 | 0.337 | 0.223 | 0.355 | 0.972 | 1.04 | 0.979 | 0.937 | 0.705
NCI-H322M | 0.823 | 0.739 | 0.961 | 0.758 | 0.724 | 0.947 | 1.03 | 0.934 | 0.363 | 0.239 | 0.701 | 0.687 | 0.856 | 0.818 | 0.662 | 1.18 | 1.41 | 1.09 | 0.802 | 0.318
NCI-H2228 | 0.583 | 0.521 | 0.62 | 0.489 | 0.405 | 0.692 | 0.953 | 0.618 | 0.102 | 0.0419 | – | – | – | – | – | 1.11 | 0.893 | 0.747 | 0.0829 | 0.0768
NCI-H358 | 0.543 | 0.61 | 0.582 | 0.384 | 0.141 | 0.705 | 0.886 | 0.307 | 0.145 | 0.0554 | 0.213 | 0.187 | 0.232 | 0.157 | 0.137 | – | – | – | – | –
Calu-6 | 0.538 | 0.565 | 0.611 | 0.534 | 0.239 | 0.879 | 0.942 | 0.519 | 0.167 | 0.0898 | – | – | – | – | – | 0.765 | 0.623 | 0.523 | 0.0678 | 0.0602
CAL-12T | 0.759 | 0.764 | 0.724 | 0.679 | 0.232 | 1.09 | 1.17 | 0.908 | 0.293 | 0.162 | – | – | – | – | – | 0.918 | 1.31 | 1.16 | 0.424 | 0.151
HCC-44 | 0.965 | 0.988 | 0.966 | 0.969 | 0.94 | – | – | – | – | – | 0.968 | 0.643 | 0.966 | 0.902 | 0.84 | 0.967 | 1.01 | 0.965 | 0.912 | 0.436
NCI-H522 | 0.783 | 0.681 | 0.694 | 0.621 | 0.56 | – | – | – | – | – | 0.708 | 0.642 | 0.607 | 0.747 | 0.608 | – | – | – | – | –
ABC-1 | 1.08 | 0.95 | 0.776 | 0.799 | 0.566 | 1.01 | 1.13 | 0.956 | 0.195 | 0.228 | 1.38 | 1.31 | 0.999 | 1.17 | 1.07 | – | – | – | – | –
NCI-H1563 | – | – | – | – | – | 0.903 | 0.923 | 0.87 | 0.746 | 0.565 | – | – | – | – | – | – | – | – | – | –
NCI-H1703 | 0.18 | 0.403 | 0.393 | 0.524 | 0.246 | 0.331 | 0.362 | 0.291 | 0.209 | 0.211 | – | – | – | – | – | 0.929 | 0.965 | 0.283 | 0.134 | 0.108
NCI-H661 | 0.741 | 0.729 | 0.729 | 0.676 | 0.516 | 0.997 | – | 1.01 | 0.576 | 0.362 | 0.539 | 0.532 | 0.594 | 0.558 | 0.489 | – | – | – | – | –
NCI-H1648 | 1.07 | 0.793 | 0.91 | 0.624 | 0.576 | – | – | – | – | – | 0.594 | 0.421 | 0.829 | 0.447 | 0.39 | – | – | – | – | –
LCLC-103H | 0.704 | 0.745 | 0.672 | 0.745 | 0.706 | 0.76 | 0.93 | 0.639 | 0.305 | 0.154 | 0.7 | 0.728 | 0.784 | 0.763 | 0.738 | – | – | – | – | –
NCI-H1792 | 0.423 | 0.334 | 0.299 | 0.369 | 0.405 | – | – | – | – | – | 0.58 | 0.469 | 0.537 | 0.427 | 0.581 | 0.558 | 0.599 | 0.611 | 0.437 | 0.102
SW 900 | 0.893 | 0.803 | 0.924 | 0.703 | 0.606 | 0.845 | 0.831 | 0.871 | 0.605 | 0.118 | 0.438 | 0.426 | 0.364 | 0.402 | 0.382 | – | – | – | – | –
EBC-1 | 0.632 | 0.765 | 0.642 | 0.583 | 0.269 | 0.107 | 0.115 | 0.103 | 0.106 | 0.0799 | – | – | – | – | – | 0.387 | 0.396 | 0.285 | 0.154 | 0.147
NCI-H1299 | 0.946 | 0.92 | 0.976 | 0.969 | 0.331 | 1.04 | 1.06 | 1.1 | 0.4 | 0.186 | – | – | – | – | – | 1.04 | 1.13 | 1.03 | 0.863 | 0.243
NCI-H1623 | – | – | – | – | – | 0.817 | 0.94 | 0.886 | 0.803 | 0.533 | – | – | – | – | – | – | – | – | – | –
IA-LM | 0.832 | 0.881 | 0.775 | 0.782 | 0.114 | 1.07 | 1.05 | 0.906 | 0.601 | 0.103 | – | – | – | – | – | 0.733 | 0.76 | 1.12 | 0.669 | 0.148

Reference: the supplement of paper PMC10307832
